# Literature values, collected in patent publication US11229595B2, “Skin barrier preparation and method therefor” (Johnson & Johnson Consumer Inc., priority 2019, dated 2022).
# Test system: skin
# Details: eight volunteers, four compounds compared, patches during 24 hours
row,SMILES,increase of TEWL
1,CN(C)CCCN1c2ccccc2CCc2ccccc21 [imipramine],increased the least TEWL
2,CCCCCCCCC(=O)O [nonanoic acid],increased the least TEWL
